Read-outs that look alike come from different tables or passages of the source.

Assay [1] in a line: Activation of model azido-prodrug 4 by 3-(diphenylphosphino)benzenesulfonate (5), followed with 1H NMR. The method, then:
9) Activation of model azido-prodrug 4-azidobenzyl N-benzyl carbamate (4) by 3-(diphenylphosphino)benzenesulfonate (5) in two different media.
In DMF/H2O (3.5/1): Prodrug 4 (5.3 mg, 18.8 μmol) was dissolved in 952 μl DMF-d7 and 275 μl D2O. Phosphine 5 (12.1 mg, 33.2 μmol) was added and the reaction was followed with ^1H NMR. The reaction had run to completion within 14 hours as judged from the disappearance of the CH2 azidobenzyl signal at 4.83 ppm and the appearance of the CH2 signal of the corresponding aminobenzylalcohol (7) at 4.64 ppm.
In THF/H2O (1/1): Prodrug 4 (4.8 mg, 17.0 μmol) was dissolved in 275 μl THF-d8 and 275 μl D2O. Phosphine 5 (11.3 mg, 31.0 μmol) was added to the slightly yellow solution after which gas development was observed. The reaction was followed with ^1H NMR and had to run to 50% after 7 hours as judged from the disappearance of the CH2 benzyl signal at 4.38 ppm and the appearance of the CH2 signal of the corresponding free benzylamine (6) at 3.99 ppm.

The conditions of assay [2]: for extent of activation reaction: 10 μM prodrug. The method, then: 11) Activation of the doxorubicin prodrug (9) followed with HPLC and LC-MS
The activation was carried out in the following way: a solution of prodrug in water or growth medium was mixed with a solution of triphenylphosphine-3,3′,3″-trisulfonic acid trisodium salt in water or growth medium. Samples were taken from the reaction mixture (at 37 C) every 2 hours and measured in the HPLC or LCMS. Several different concentrations and ratios prodrug/triphenylphosphine were used. The first activation experiment was done in water with a concentration of 100 μM for the prodrug and 200 μM for the phosphine, and monitored with HPLC.
The second activation was done at a 10-fold lower concentration, 10 μM for the prodrug and 20 μM for the phosphine, and monitored with LCMS.
The third and last activation was done in cell growth medium at 10 μM prodrug. […] During this experiment a fresh portion (60 μM) triphenylphosphine was added to the mixture twice a day.

A further assay has as its system A431 cells. The note with it: for anti-proliferative activity (ranking): 72 hours incubation, ranking among pro-dox, pro-dox plus phosphine, and doxorubicin.

Protocol for A431 cells: 12) Cell proliferation assay using A431 cells with prodrug 9 (pro-dox) in situ activated by triphenylphosphine.
The in vitro anti-cancer activity of prodrug 9 (pro-dox) was assessed by means of cytotoxicity assays. For these cellular experiments the A431 cell line was used. […] The addition of the prodrug in combination with phosphine should lead to a reduction in proliferation compared to the addition of pro-dox without phosphine, due to the release of doxorubicin by means of the staudinger reaction.
Cells were maintained at 37° C. in DMEM (InVitrogen), supplemented with 10% heat-inactivated fetal bovine serum and 0.05% glutamax (InVitrogen) in the presence of penicillin and streptomycin.
Doxorubicin (Toronto Research Chemicals) and pro-dox (9) were, prior to each experiment, freshly dissolved in DMF at 10 mM and subsequently serial diluted in pre-warmed culture medium. Triphenylphosphine-3,3′,3″-trisulfonic acid trisodium salt (Sigma) was dissolved in PBS at 10 mM and serial diluted in pre-warmed medium. Methylthiazolyldiphenyl-tetrazolium bromide, MTT (Sigma) was used as described by the manufacturer.
Cells were plated out in a 96 well plate (Nunc) at a density of 7500 cells/well, followed by addition of reagents the next day. After 72 hours incubation cell proliferation was assessed by means of a MTT assay. Briefly, MTT was dissolved in pre-warmed medium at 5 mg/ml, passed through a 0.22 μm filter and 50 μl was added to each well. Following an incubation period of 120 minutes the medium was gently aspirated. The formed formazan crystals were dissolved in 100 μl DMSO and the absorbance, or optical density (O.D.), was measured with a plate reader (BMG) at 560 nm. The inhibition of proliferation was determined by reporting the O.D. of the treated group (T) with the O.D. of the appropriate control group (C), and expressed as [(1-T/C)×100%].
Therefore, instead of adding the prodrug to the cell culture together with a single batch triphenylphosphine on day 2, the phosphine was added at fixed intervals from day 2 to day 4. Three phosphine dosing schemes were investigated: 5×10 μM, 5×30 μM, and 5×60 μM. The range of the concentrations used for the doxorubicin drugs was 0-0.01-0.1-0.3-1.0-10 μM.
The above phosphine-dosing scheme was compared to a single batch-dosing scheme at the same total amount of phosphine.

Regarding `[N-]=[N+]=Nc1ccc(COC(=O)NCc2ccccc2)cc1` [prodrug 4, 4-azidobenzyl N-benzyl carbamate], in assay [1] (DMF/H2O (3.5/1), prodrug 18.8 μmol, phosphine 5 33.2 μmol), the “time until reaction had run to completion” value was not above 14 h. Besides, the “extent of reaction (release of free benzylamine)” value in assay [1] (THF/H2O (1/1), after 7 hours, prodrug 17.0 μmol, phosphine 5 31.0 μmol) was 50%.
Consider “Azidobenzyl carbamate Doxorubicin [prodrug 9]”, for which the “extent of activation reaction” value was “approximately 30%” in assay [2] (20 μM phosphine, after 24 hours, LCMS) and 85% in assay [2] (cell growth medium, fresh 60 μM triphenylphosphine added twice a day, after 8 hours). The “time until reaction was complete” value in assay [2] (water, 37 C, 100 μM prodrug, 200 μM phosphine, HPLC) amounted to 20 h. The doxorubicin formed in assay [2] (water, 37 C, 100 μM prodrug, 200 μM phosphine, after 8 hours, HPLC) was 15%. The “anti-proliferative activity (ranking)” value in the assay on A431 cells (MTT) is listed as “lowest anti-proliferative activity”. Moreover, in the assay with A431 cells (72 hours, MTT, pro-dox with 60 μM repetitive dose (5×60 μM) of phosphine), the “increase of activity over pro-dox alone” value is reported as 33 fold. In addition, in the assay on A431 cells (identical total phosphine amounts), the “activation by a single dose of phosphine compared with sequential additions” value is listed as “not nearly as effective”.
As to `COc1cccc2c1C(=O)c1c(O)c3c(c(O)c1C2=O)C[C@@](O)(C(=O)CO)C[C@@H]3O[C@H]1C[C@H](N)[C@H](O)[C@H](C)O1` [Doxorubicin, reference compound], in the assay with A431 cells (MTT), the “anti-proliferative activity (ranking)” value is “highest activity”. Further, the “activity relative to pro-dox” value in the assay with A431 cells (72 hours, MTT) is 2 orders of magnitude.
